The structures appear in SMILES notation. Structures can show the parent of a compound that is named as a salt. Where two headings read alike, the source gives them in different places.

Usually LD50 stands for the dose at which mortality reaches 50%.

Data set [1] in a line: Acute toxicity (LD50) in the male mouse, intraperitoneal and oral routes. The text has this:
The acute toxicity of the compounds according to the invention was studied by the intraperitoneal route in the male mouse. The results obtained were as follows:
The value of lithium salts in the treatment of depressions and in particular of manic-depressive psychosis, is well-known. But the major disadvantage of this therapy resides in the toxicity of the currently known salts (carbonate, citrate, gluconate).

Data set [2] in a line: Minimum lethal dose by intravenous route in male rabbits. The data set is classed as in vivo, male rabbit. The procedure:
This reduction of acute toxicity was confirmed by the evaluation of the minimum lethal dose by intraveinous route in male rabbits, comparatively beween lithium citrate and lithium N-acetyltaurinate:
In the same experimental conditions, the minimum lethal dose is 42 mg of lithium with lithium citrate, and 204 mg lithium with lithium N-acetyltaurinate.

A short description of data set [3]: Chronic toxicity in rats over three months, renal histology. The data set is classed as in vivo, rat. The procedure: A study of the chronic toxicity in rats was conducted comparatively between lithium N-acetyltaurinate and lithium carbonate:
For three months, rats received doses of 8 mg/Kg and 24 mg/Kg per day of lithium, first in the form or lithium carbonate, and in the form of lithium N-acetyltaurinate.

The nature of data set [4]: Investigation behaviour of the mouse, "Holed board" test. The data set is classed as in vivo. The text has this: (§1) 1. The investigation behaviour of the mouse was studied by the "Holed board" test (Boissier and Simon; Arch. Int. Pharmacodyn. 1964, 147, 3-4),
Data set [5] in a line: Spontaneous motility of the mouse, Boissier's photoelectric actimeter. The data set is classed as in vivo. The text has this:
(§2) 2. The study of the spontaneous motility of the mouse was made by using Boissier's photoelectric actimeter.

A short description of data set [6]: Motility of mice after amphetamine-acetyl-taurinate interaction (photoelectric actimeter). Particulars: mouse, with 10 mg/kg IP dextrorotatory amphetamine. The data set is classed as in vivo. Here is the method:
(§3) 3. The study of the motility of the mice was also made by using Boissier's photoelectric actimeter, after amphetamine-acetyl-taurinate interaction according to the invention: the mice are treated simultaneously with 10 mg/kg (IP) of dextrorotatory amphetamine and with an optimal dose of acetyltaurinate.

The nature of data set [7]: Hypothermia in the mouse (rectal temperature). The data set is classed as in vivo. Particulars: for hypothermia / reduction in the rectal temperature: intraperitoneal. Here is the method:
(§4) 4. A study of the hypothermia in the mouse was effected by determining the rectal temperature of the mice 30 mins. before the intraperitoneal administration of the product, at the moment of this administration, then 30 mins., 1 hour, 2, 3 and 4 hrs. after the injection of the product.

Data set [8] in a line: Hypothermia after amphetamine-acetyl-taurinate interaction in the mouse. The data set is classed as in vivo. Here is the method: (§5) 5. The study of the hypothermia after amphetamine-acetyl-taurinate interaction according to the invention was made according to the same method as previously in the mouse, the animals being treated simultaneously with 30 mg/kg (IP) of dextrorotatory amphetamine and with an optimal dose of the product to be tested.

Data set [9] is described as follows: Appetite- and thirst-depressant activities in the rat. The data set is classed as in vivo. The source says:
(§6) 6. A test was also made of the appetite- and thirst-depressant activities in the rat.

Data set [10] can be described thus: Test of morphinic agitation in mice. The data set is classed as in vivo, mouse. Particulars: for effect type in the morphinic agitation test: 5-day treatment, 100, 500 and 2500 mg/Kg per os. The text has this: Furthermore, the neuro-muscular activity of the lithium N-acetyltaurinate has been evaluated in comparison with that of taurine and of the other salts of N-acetyltaurine, using the test of morphinic agitation.

The conditions of data set [11]: in vivo.
Data set [12] can be described thus: Human observation: bipolar manic-depressive psychosis, lithemia and mood. Particulars: one patient.
Data set [13] in a line: Human observation: neuromuscular hyperexcitability. The data set is classed as in vivo. The source says:
The following observation is given by way of example: a person has been treated for 7 years for a neuromuscular hyperexcitability,with a wide range of neuro-vegetative disorders. They present critical phenomena of lipothymia type, anxious crises with paroxysmal tachycardia. They have had four grand mal epileptic crises.
(§7) A person . . . […] 2 suicide attempts. Predominance of psychomotive inhibition. […] a person . . .

The nature of data set [14]: Neuro-muscular activity in the six pharmacological tests (summary). The data set is classed as in vivo. Particulars: mouse and rat. The procedure:
as §1, §2, §3, §4, §5, §6

Data set [15] is described as follows: Human observation: chronic alcoholism with predelirium. The data set is classed as in vivo.
Description: as §7

Setting [16] is: listed as N-acetyl-taurinate of lithium.
[17] abbreviates: listed as N-acetyltaurinate of calcium.
The mark [18] stands for this setting: listed as N-acetyl-taurinate of potassium.

`CC(=O)NCCS(=O)(=O)O` [Example 3, N-acetyl-taurinate of lithium]: the “acute toxicity compared with that of lithium carbonate” value in data set [1] (male mice, intraperitoneal and oral routes) is listed as “clearly reduced acute toxicity”. The LD50 in [1] (mouse, in vivo, ip, LD50) was found to be 3880 mg/kg; in data set [1] (mouse, in vivo, ip, LD50 in the male mouse, intraperitoneal route), 155 mg/kg; in data set [1] (mouse, in vivo, po, LD50), 6630 mg/kg; in data set [1] (mouse, in vivo, po, LD50 in the male mouse), 266 mg/kg. In addition, in data set [2], the minimum lethal dose is 204 mg of lithium. For the same molecule, the “toxicity with respect to lithium carbonate (acute and chronic renal)” value in data set [3] (conclusion from acute and chronic toxicity studies) is “less toxic”. Moreover, the “tubular renal lesions thirty days after the treatment has stopped” value in [3] (rat, in vivo) is given as “a reversion of the lesions is noted in all the animals”. In addition, the “investigation behaviour / exploratory activity” value in data set [4] (setting [16]) is recorded as “very clear increase”. Moreover, in data set [5], the “motility in free condition” value is “very clear increase”. Further, in [5] (dose not stated, listed as N-acetyl-taurinate of lithium), the motive agitation entry is given as “increase”. Moreover, in [6] (setting [16]), the amphetaminic excitation result is listed as “increase”. The “hypothermia / reduction in the rectal temperature” value in [7] (setting [16]) is “significant hypothermia”. Besides, the “hypothermia after simultaneous injection of amphetamine” value in [8] (with 30 mg/kg IP dextrorotatory amphetamine) is recorded as “completely eliminated”. Also, the “appetite- and thirst-depressant actions” value in [9] is “very clear appetite- and thirst-depressant actions”. Moreover, the “taking of food and drink consumed” value in data set [9] is on record as “very substantial reduction”. Also, in [10] (100 mg/Kg per os, between the 75th and the 90th minute), the “potentiation of the morphinic agitation” value is reported as 45%. Besides, the “effect type in the morphinic agitation test” value (“effect type” for short) in [10] (listed as lithium acetyltaurinate) is given as “biphasic effect”. In addition, in data set [10] (stronger doses (500 and 2500 mg/Kg) per os), the “effect on the agitation caused by morphine sulphate” value was “antagonistic effect”. Besides, in data set [11], the “stability of the mood” value was “same stability of the mood”.

Regarding `O=C(O)O` [Lithium carbonate, reference compound], the LD50 in [1] (mouse, in vivo, ip) was found to be 88 mg/kg; in data set [1] (mouse, in vivo, po), 162 mg/kg. Further, the “tubular renal lesions (histological study)” value in [3] (rats, 8 and 24 mg/Kg per day of lithium, three months) is “tubular renal lesions appear in all the treated animals”. The “tubular renal lesions thirty days after the treatment has stopped” value in [3] (rats, dose of 24 mg of lithium per Kg, 30 days after stop) was “the lesions persist”. For the same molecule, the lithemia in [12] (1 g/day) is on record as at most 0.5 meq/liter. Also, in data set [12] (increased dose), the signs of intolerance entry is “permanent tremblings: nauseas, vomitings, hypotension”. For the same molecule, the “stability of the mood” value in data set [12] is “a stability of the mood is obtained”.

As to `O=C(O)CC(O)(CC(=O)O)C(=O)O` [lithium citrate, reference compound], the minimum lethal dose in data set [2] is on record as 42 mg of lithium.

Take `CC(=O)NCCS(=O)(=O)O` [Example 4, N-acetyl-taurinate of magnesium]: the LD50 is reported as 1709 mg/kg in data set [1] (intraperitoneal route, male mouse, mg of compound, listed as N-acetyltaurinate of magnesium) and 17400 mg/kg in data set [1] (oral route, male mouse, mg of compound, listed as N-acetyltaurinate of magnesium). Moreover, the motive agitation entry was “very clear reduction” in data set [5] (high dose (200 mg/kg)) and “increase” in data set [5] (low dose (100 mg/kg), listed as N-acetyl-taurinate of magnesium, 100 mg/kg). Besides, in [6] (listed as N-acetyl-taurinate of magnesium), the amphetaminic excitation entry is on record as “reduction”. The “reduction in the maximum rectal temperature” value in data set [7] (2 hours after the injection) is “very considerable reduction”. For the same molecule, in data set [8] (with amphetamine, 1 hour after the injection), the “reduction of rectal temperature after simultaneous injection of amphetamine” value is on record as “completely eliminated”. Also, the “effect type” value in data set [10] (listed as Mg) is given as “mono-phasic effect, antagonistic to the morphinic agitation even in small doses”. Also, the “general state of the patient” value in [13] (venous perfusion 1 g first ten days with 1.5 g/day per os) is listed as “complete recovery of the general state”. In data set [13] (verified with a recession of 13 months), the critical phenomena result is “disappearance of the critical phenomena”.

Regarding `NCCS(=O)(=O)O` [taurine], in [14], the “neuro-muscular activity in six tests” value is listed as “without any activity”. Moreover, the “effect type” value in [10] was “no effect”.

Consider `CC(=O)NCCS(=O)(=O)O` [Example 5, N-acetyl-taurinate of calcium], for which, in [1] (intraperitoneal route, male mouse, mg of compound, listed as N-acetyltaurinate of calcium), the LD50 amounted to 1604 mg/kg. For the same molecule, in data set [1] (oral route, male mouse, mg of compound, listed as N-acetyltaurinate of calcium), the 50% lethal dose (LD50) was found to be 13230 mg/kg. Further, the “investigation behaviour / exploratory activity” value in data set [4] (setting [17]) is “increase”. Also, the motive agitation entry in [5] (low dose (100 mg/kg), listed as N-acetyltaurinate of calcium, 100 mg/kg) was “reduction”. Moreover, the amphetaminic excitation result in data set [6] (setting [17]) is recorded as “does not modify”. For the same molecule, the “hypothermia / reduction in the rectal temperature” value in data set [7] (setting [17]) is reported as “significant reduction”. Moreover, in data set [8] (amphetamine interaction), the hyperthermia result is listed as “does not modify”. Further, in [10] (listed as Ca), the “effect type” value is given as “mono-phasic effect, antagonistic to the morphinic agitation even in small doses”. Further, in [15] (1.5 g daily oral), the alcoholic weaning result is “upkept”, the intellectual efficiency result is on record as “improved” and the tremblings entry is on record as “considerably reduced”. Also, the “effect on attack of mental aberration with convulsions” value in [15] (venous perfusion 1 g per hour for three hours) was “sedation of the attack with a state of euphoria”.

Regarding `CC(=O)NCCS(=O)(=O)O` [Example 2, N-acetyl-taurinate of potassium], the LD50 was found to be 3234 mg/kg in [1] (intraperitoneal route, male mouse, mg of compound, listed as N-acetyltaurinate of potassium) and 8170 mg/kg in [1] (oral route, male mouse, mg of compound, listed as N-acetyltaurinate of potassium). Also, the “investigation behaviour / exploratory activity” value in [4] (setting [18]) was “increase in the investigation behaviour in the mouse, not proportional to the dose”. Also, the motive agitation result in [5] (dose not stated, listed as N-acetyl-taurinate of potassium) was “slight increase”. For the same molecule, in data set [6] (setting [18]), the amphetaminic excitation result was “reduction”. Also, the “neuro-muscular activity in six tests” value in data set [14] was “neuro-muscular activity has been demonstrated”.

Take `O=C([O-])[C@H](O)[C@@H](O)[C@H](O)[C@H](O)CO.[Li+]` [lithium gluconate, reference compound]: the “effect on the morphinic agitation relative to lithium acetyltaurinate at 100 mg/Kg” value in data set [10] (potentiation in small doses) was “comparable”.

The record behind these values is patent publication US4271189A, “Lithium derivatives of taurine having reinforced neuro-muscular activity” (Les Laboratoires Meram, priority 1977, dated 1981).
